Source: US10478511B2, “Therapeutic agent for tauopathy and method for screening thereof” (National Center for Geriatrics and Gerontology, priority 2014, dated 2019)

Key:
[1] = biological target: T1, human tau protein (Homo sapiens, UniProt P10636); assay: Quantification of aggregated tau in brain of Drosophila expressing human tau in neurons (elav/Y; hTau/+); type: in vivo; conditions: hTau/+ flies, 1 mM in food, bred 1 month, versus non-administration group (100%), FIG. 4
T1 construct: expressed in transfected cells; host or cells: transgenic Drosophila (GAL4-UAS; gmr-gal4 compound eyes or elav^C155-gal4 neurons), fly heads
Description: Thereafter, the recovered heads were cryopreserved at −80° C. […] The obtained supernatant was recovered in another ultracentrifuge tube.
Using the screening system established in 3 above, the tau protein aggregation-inhibiting effect of rose bengal, which is a fluorone dye, was evaluated. […] Thereafter, the accumulation of aggregated tau in brain was quantified according to the procedures in (2) above.

[2] = system: Drosophila expressing human tau in neurons (elav/Y; hTau/+); assay: Motor function (climbing assay, negative gravitaxis) of Drosophila expressing human tau in neurons; type: in vivo; conditions: 1 mM in food, versus non-administration group, FIG. 5
Description: (§1) Male F1 Drosophila one to three days after emergence were bred under an environment consisting of a temperature of 25±3° C., a humidity of 60±10%, and a light-dark cycle of 12 hours. […] The flies were transferred into a vial filled with fresh food once every two weeks.
The motor function of Drosophila of was measured by performing climbing assay and evaluating negative gravitaxis. The climbing assay was carried out under the following conditions. Drosophila was transferred into an empty vial containing no food, and the vial was then hit, so that flies fell to the bottom. Thereafter, the movement of the flies climbing up the wall was captured on video. The flies, which were below the line drawn at the position 3 cm from the bottom 10 seconds after they had fallen to the bottom, were defined as “flies that could not climb”, and flies, which were above the aforementioned line, were defined as “flies that could climb”. The number of flies of each type was counted. The total number of flies in the vial was set at 100%, and the percentage of the flies that could climb was calculated.

[3] = system: Drosophila expressing human tau in mushroom body neurons (mb/Y; hTau/+); assay: Olfactory memory (discrimination learning test with odor and electric shock) of Drosophila expressing human tau in mushroom body neurons; type: in vivo; conditions: hTau/+ flies, administered over 1 week, versus non-administration, FIG. 9
Description: as §1

[4] = system: wild-type Drosophila; conditions: in vivo
Description: as §1

[5] = system: tau proteins; conditions: tauopathy model mice, Non-Patent Document 3; cited from earlier work
[6] = system: wild-type Drosophila; assay: Survival rate of wild-type Drosophila; conditions: wild-type flies, 1 mM in food, versus non-administration group, FIG. 7
Description: as §1
Drosophila were bred under the conditions described in (1) above, and the number of surviving flies was counted every three days, and the survival rate was then calculated.
As a control, the Drosophila in the non-administration group was used.

T1 sequence (P10636 1-441 isoform P10636-8): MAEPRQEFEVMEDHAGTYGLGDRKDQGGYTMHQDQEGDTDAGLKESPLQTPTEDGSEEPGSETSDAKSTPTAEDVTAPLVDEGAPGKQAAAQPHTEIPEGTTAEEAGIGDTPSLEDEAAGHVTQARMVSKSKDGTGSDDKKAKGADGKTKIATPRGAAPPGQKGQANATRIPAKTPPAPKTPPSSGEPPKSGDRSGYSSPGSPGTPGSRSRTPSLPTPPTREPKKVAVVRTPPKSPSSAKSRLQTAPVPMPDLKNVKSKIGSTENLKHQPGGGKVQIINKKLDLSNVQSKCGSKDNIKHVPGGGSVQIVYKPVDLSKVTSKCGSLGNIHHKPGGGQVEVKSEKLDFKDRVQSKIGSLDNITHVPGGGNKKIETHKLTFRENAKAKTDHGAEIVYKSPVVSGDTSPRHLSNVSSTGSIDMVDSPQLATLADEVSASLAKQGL

## O=C([O-])c1c(Cl)c(Cl)c(Cl)c(Cl)c1-c1c2cc(I)c(=O)c(I)c-2oc2c(I)c([O-])c(I)cc12.[Na+].[Na+] [rose bengal]
[1]
  accumulated amount of aggregated tau in brain: reduction
[2]
  motor function (percentage of flies that could climb): recovered
[3]
  olfactory memory: significantly improved
[4]
  olfactory memory: no significant change

## O=C1NC(=O)C(=O)C(=O)N1 [alloxan]
[5]
  accumulation of tau proteins in the brains: reduced

## CN(C)c1ccc2nc3ccc(=[N+](C)C)cc-3sc2c1 [methylene blue]
[1]
  accumulated amount of aggregated tau in brain: reduction
[2]
  motor function (percentage of flies that could climb): recovered
[6]
  survival rate: significantly reduced
